Data from ChEMBL document CHEMBL1201862, “PubChem BioAssay data set” (2004).
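Following 48 hours of exposure in 96-well plates, responses at five concentrations were used to interpolate endpoints linearly. GI50 is the concentration that inhibits growth by half.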 The source made the active and inactive calls. Rule as the data show it: active = GI50 up to about 1.1 µM and inactive = higher.

Key:
Experiment in all cases: NCI tumour cell line growth inhibition, 48 h
786-0 = system: 786-0
A549 = system: A549
ACHN = system: ACHN
BT-549 = system: BT-549
CCRF-CEM = system: CCRF-CEM
EKVX = system: EKVX
HCT-15 = system: HCT-15
HL-60 = system: HL-60
HOP-92 = system: HOP-92
HT-29 = system: HT-29
Hs-578T = system: Hs-578T
IGROV-1 = system: IGROV-1
K562 = system: K562
KM12 = system: KM12
LOX IMVI = system: LOX IMVI
M14 = system: M14
MCF7 = system: MCF7
MDA-MB-231 = system: MDA-MB-231
MDA-MB-435 = system: MDA-MB-435
MDA-N = system: MDA-N
MOLT-4 = system: MOLT-4
Malme-3M = system: Malme-3M
NCI-H23 = system: NCI-H23
NCI-H460 = system: NCI-H460
NCI-H522 = system: NCI-H522
NCI/ADR-RES = system: NCI/ADR-RES
OVCAR-3 = system: OVCAR-3
OVCAR-4 = system: OVCAR-4
OVCAR-5 = system: OVCAR-5
OVCAR-8 = system: OVCAR-8
PC-3 = system: PC-3
RXF 393 = system: RXF 393
SF-268 = system: SF-268
SF-295 = system: SF-295
SF-539 = system: SF-539
SK-MEL-2 = system: SK-MEL-2
SK-MEL-5 = system: SK-MEL-5
SK-OV-3 = system: SK-OV-3
SN12C = system: SN12C
SNB-19 = system: SNB-19
SNB-75 = system: SNB-75
SR = system: SR
SW-620 = system: SW-620
T47D = system: T47D
TK-10 = system: TK-10
U-251 = system: U-251
UACC-257 = system: UACC-257
UACC-62 = system: UACC-62
UO-31 = system: UO-31
CAKI-1 = system: CAKI-1
COLO 205 = system: COLO 205
HCT-116 = system: HCT-116
HOP-62 = system: HOP-62
NCI-H226 = system: NCI-H226
SK-MEL-28 = system: SK-MEL-28
A498 = system: A498
DU-145 = system: DU-145
HCC 2998 = system: HCC 2998
RPMI-8226 = system: RPMI-8226

Compound: O=C(Cc1ccc([N+](=O)[O-])cc1)OCC#CCOC(=O)Cc1ccc([N+](=O)[O-])cc1
- GI50 (786-0): > 10 µM (inactive)
- GI50 (A549): > 10 µM (inactive)
- GI50 (ACHN): > 10 µM (inactive)
- GI50 (BT-549): > 10 µM (inactive)
- GI50 (CCRF-CEM): > 10 µM (inactive)
- GI50 (EKVX): > 10 µM (inactive)
- GI50 (HCT-15): > 10 µM
- GI50 (HL-60): > 10 µM (inactive)
- GI50 (HOP-92): > 10 µM (inactive)
- GI50 (HT-29): > 10 µM (inactive)
- GI50 (Hs-578T): > 10 µM (inactive)
- GI50 (IGROV-1): > 10 µM (inactive)
- GI50 (K562): > 10 µM (inactive)
- GI50 (KM12): > 10 µM (inactive)
- GI50 (LOX IMVI): > 10 µM (inactive)
- GI50 (M14): > 10 µM (inactive)
- GI50 (MCF7): > 10 µM (inactive)
- GI50 (MDA-MB-231): > 10 µM (inactive)
- GI50 (MDA-MB-435): > 10 µM (inactive)
- GI50 (MDA-N): > 10 µM (inactive)
- GI50 (MOLT-4): > 10 µM (inactive)
- GI50 (Malme-3M): > 10 µM (inactive)
- GI50 (NCI-H23): > 10 µM (inactive)
- GI50 (NCI-H460): > 10 µM (inactive)
- GI50 (NCI-H522): > 10 µM (inactive)
- GI50 (NCI/ADR-RES): > 10 µM (inactive)
- GI50 (OVCAR-3): > 10 µM (inactive)
- GI50 (OVCAR-4): > 10 µM (inactive)
- GI50 (OVCAR-5): > 10 µM (inactive)
- GI50 (OVCAR-8): > 10 µM (inactive)
- GI50 (PC-3): > 10 µM (inactive)
- GI50 (RXF 393): > 10 µM (inactive)
- GI50 (SF-268): > 10 µM (inactive)
- GI50 (SF-295): > 10 µM (inactive)
- GI50 (SF-539): > 10 µM (inactive)
- GI50 (SK-MEL-2): > 10 µM (inactive)
- GI50 (SK-MEL-5): > 10 µM (inactive)
- GI50 (SK-OV-3): > 10 µM (inactive)
- GI50 (SN12C): > 10 µM (inactive)
- GI50 (SNB-19): > 10 µM (inactive)
- GI50 (SNB-75): > 10 µM (inactive)
- GI50 (SR): > 10 µM (inactive)
- GI50 (SW-620): > 10 µM (inactive)
- GI50 (T47D): > 10 µM (inactive)
- GI50 (TK-10): > 10 µM (inactive)
- GI50 (U-251): > 10 µM (inactive)
- GI50 (UACC-257): > 10 µM (inactive)
- GI50 (UACC-62): > 10 µM (inactive)
- GI50 (UO-31): > 10 µM (inactive)

Compound: COc1cc([C@@H]2c3cc4c(cc3[C@@H](NCCNCCO)[C@H]3COC(=O)[C@H]23)OCO4)cc(OC)c1O
- GI50 (786-0): 1.09 µM (active)
- GI50 (A549): 0.785 µM (active)
- GI50 (BT-549): 1.92 µM (inactive)
- GI50 (CAKI-1): 3.78 µM (inactive)
- GI50 (CCRF-CEM): 0.0432 µM (active)
- GI50 (COLO 205): 2.38 µM (inactive)
- GI50 (HCT-116): 2.4 µM (inactive)
- GI50 (HCT-15): 29.5 µM
- GI50 (HOP-62): 1.5 µM (inactive)
- GI50 (HT-29): 2.86 µM (inactive)
- GI50 (Hs-578T): 1.89 µM (inactive)
- GI50 (IGROV-1): 1.05 µM (active)
- GI50 (K562): 1.71 µM (inactive)
- GI50 (KM12): 2.55 µM (inactive)
- GI50 (M14): 3.79 µM (inactive)
- GI50 (MDA-MB-435): 6.22 µM (inactive)
- GI50 (MDA-N): 4.35 µM (inactive)
- GI50 (MOLT-4): 0.016 µM (active)
- GI50 (NCI-H226): 1.12 µM (inactive)
- GI50 (NCI-H23): 1.24 µM (inactive)
- GI50 (NCI-H460): 0.0525 µM (active)
- GI50 (NCI/ADR-RES): > 100 µM (inactive)
- GI50 (OVCAR-4): 18.7 µM (inactive)
- GI50 (OVCAR-8): 2.09 µM (inactive)
- GI50 (PC-3): 2.67 µM (inactive)
- GI50 (RXF 393): 1.53 µM (inactive)
- GI50 (SK-MEL-28): 2.14 µM (inactive)
- GI50 (SK-MEL-2): 2.15 µM (inactive)
- GI50 (SK-MEL-5): 1.15 µM (inactive)
- GI50 (SK-OV-3): 1.78 µM (inactive)
- GI50 (SNB-19): 0.857 µM (active)
- GI50 (SNB-75): 1.1 µM (active)
- GI50 (SW-620): 2.44 µM (inactive)
- GI50 (T47D): 0.442 µM (active)
- GI50 (TK-10): 6.59 µM (inactive)
- GI50 (U-251): 0.501 µM (active)
- GI50 (UACC-257): 7.85 µM (inactive)
- GI50 (UACC-62): 0.644 µM (active)
- GI50 (UO-31): 11.6 µM (inactive)

Compound: C=C1C(=O)CC2C(=O)C(C)(O)CC/C=C(\C)C(=O)CC12 (stereo unspecified)
- GI50 (786-0): 16.1 µM (inactive)
- GI50 (A498): > 86.9 µM (inactive)
- GI50 (A549): 60.1 µM (inactive)
- GI50 (ACHN): 10.2 µM (inactive)
- GI50 (BT-549): 15.8 µM (inactive)
- GI50 (CAKI-1): 3.17 µM (inactive)
- GI50 (CCRF-CEM): 4.23 µM (inactive)
- GI50 (COLO 205): 9.84 µM (inactive)
- GI50 (DU-145): 18.2 µM (inactive)
- GI50 (EKVX): 21.5 µM (inactive)
- GI50 (HCC 2998): > 100 µM (inactive)
- GI50 (HCT-116): 10.3 µM (inactive)
- GI50 (HCT-15): 13.6 µM
- GI50 (HL-60): 1.53 µM (inactive)
- GI50 (HOP-62): > 78.9 µM (inactive)
- GI50 (HOP-92): 23.6 µM (inactive)
- GI50 (HT-29): 17 µM (inactive)
- GI50 (Hs-578T): 2.96 µM (inactive)
- GI50 (IGROV-1): 15.3 µM (inactive)
- GI50 (K562): 6.37 µM (inactive)
- GI50 (KM12): 32.6 µM (inactive)
- GI50 (LOX IMVI): 16.3 µM (inactive)
- GI50 (M14): 16.4 µM (inactive)
- GI50 (MCF7): 11.2 µM (inactive)
- GI50 (MDA-MB-231): 26.7 µM (inactive)
- GI50 (MDA-MB-435): 24.6 µM (inactive)
- GI50 (MDA-N): 17.3 µM (inactive)
- GI50 (MOLT-4): 4.14 µM (inactive)
- GI50 (Malme-3M): 11.7 µM (inactive)
- GI50 (NCI-H226): 6.07 µM (inactive)
- GI50 (NCI-H23): 16.9 µM (inactive)
- GI50 (NCI-H460): > 100 µM (inactive)
- GI50 (NCI-H522): 3.19 µM (inactive)
- GI50 (NCI/ADR-RES): 38.5 µM (inactive)
- GI50 (OVCAR-3): 17 µM (inactive)
- GI50 (OVCAR-4): 37.6 µM (inactive)
- GI50 (OVCAR-5): 20.7 µM (inactive)
- GI50 (OVCAR-8): 20.1 µM (inactive)
- GI50 (PC-3): 24.7 µM (inactive)
- GI50 (RPMI-8226): 15 µM (inactive)
- GI50 (RXF 393): 14.4 µM (inactive)
- GI50 (SF-268): 19.5 µM (inactive)
- GI50 (SF-295): > 100 µM (inactive)
- GI50 (SF-539): 18.2 µM (inactive)
- GI50 (SK-MEL-28): 24.3 µM (inactive)
- GI50 (SK-MEL-2): 28.8 µM (inactive)
- GI50 (SK-MEL-5): 14.7 µM (inactive)
- GI50 (SK-OV-3): > 100 µM (inactive)
- GI50 (SN12C): 15.2 µM (inactive)
- GI50 (SNB-19): > 91.4 µM (inactive)
- GI50 (SNB-75): > 41.9 µM (inactive)
- GI50 (SR): 20.2 µM (inactive)
- GI50 (SW-620): 6.37 µM (inactive)
- GI50 (TK-10): 12.7 µM (inactive)
- GI50 (U-251): > 49.5 µM (inactive)
- GI50 (UACC-257): 20 µM (inactive)
- GI50 (UACC-62): 30.3 µM (inactive)
- GI50 (UO-31): 6.7 µM (inactive)
